Test: Precipitating activity: rumen fluid containing manganese compound titrated with 1.0M Na2S, silver/sulfide electrode
Set-up: species or system Holstein cows
Conditions: 200 mM MnO(II) in rumen fluid
Protocol: Next, 0.28 g of MnO(II) was placed in a 100 ml beaker and 20 ml of rumen fluid was added. Then 0.17 g of MnO2(IV) was placed in 100 ml beaker and 20 ml of rumen fluid was added. Each of these compositions, in addition to a rumen fluid control, was then titrated with a 1.0M solution of Na2S. The progress of the reaction was followed using the same silver/sulfide electrode set-up described above (Orion, Ion Plus Silver/Sulfide 9616BNWP).

## [O]=[Mn] [MnO(II)]
Vol 1M Na2S 0.0
  mVolts: 604.6 mVolts
Vol 1M Na2S 0.1
  mVolts: 674.0 mVolts
Vol 1M Na2S 0.2
  mVolts: 702.9 mVolts
Vol 1M Na2S 0.4
  mVolts: 724.5 mVolts
Vol 1M Na2S 0.5
  mVolts: 745.7 mVolts
Vol 1M Na2S 0.6
  mVolts: 760.6 mVolts
Vol 1M Na2S 0.7
  mVolts: 777.3 mVolts
Vol 1M Na2S 0.8
  mVolts: 789.8 mVolts
Vol 1M Na2S 0.9
  mVolts: 803.7 mVolts
Vol 1M Na2S 1.0
  mVolts: 803.9 mVolts
Vol 1M Na2S 1.1
  mVolts: 825.2 mVolts
Vol 1M Na2S 1.3
  mVolts: 833.7 mVolts
Vol 1M Na2S 1.4
  mVolts: 843.1 mVolts
Vol 1M Na2S 1.5
  mVolts: 848.0 mVolts
Vol 1M Na2S 1.6
  mVolts: 852.1 mVolts

— patent US9826761B2, “Compositions and methods for mitigating dietary sulfur in animals” (SarTec Corporation, priority 2008, dated 2017)
